Key:
[1] = system: C6; test: [Ca2+]i measurement in C6; format: cell-based, rat
Excerpt: (Statistical analysis it is shown in the inset. Values at the peak of the response have been analyzed using ANOVA followed by T-test, ** indicate P<0.01.).
Ca^2+ mobilization from ER was caused using an agonist acting via inositol trisphosphate elevation, mimicking physiological responses. In these conditions the dynamics of Ca^2+ transients were observe in these two cell lines. It appears evident that the plateau phase in C6 is consistently larger than in astrocytes.
Panel A: Challenge of astrocytes with ATP show the unchanged typical spike and plateau response. Panel B: In C6 an oscillatory pattern is readily detectable in response to treatment with TUN.
Tools and protocols have been developed to cleanly observe capacitative Ca^2+ entry (CCE), the phenomenon that allows the replenishment of intracellular Ca^2+ (ICS) stores and make quantitative and qualitative assessments. In particular, in astrocytes, capacitative Ca^2+ entry happens in absence of cytoplasmic Ca^2+ concentration ([Ca^2+]i) elevation (Grimaldi; 2006)(FIG. 1). […] The study was designed to investigate if there was a difference between astrocytes and glial cancer cells in this distinctive homeostatic pattern. The findings presented in this study, indicate that there are striking differences between glial cells and their cancer counterpart. The model utilizes rat cells but the observations extend and apply to human glioma cells as well. When the responses of normal astrocytes and C6 cells to thapsigargin (THAP), an agent able to block SERCA, therefore causing the release of Ca^2+ from the ER, were compared it was evident that C6 was more sensitive to the THAP (FIG. 2). However, the difference can be ascribed to one of many possibilities. […]
This phase is dependent on the balance of Ca^2+ influx triggered by store depletion and the reuptake in the ER due to SERCA activity. […] To investigate the role of influx triggered by ICS depletion, CCE was analyzed following THAP-induced depletion of ICS. […]

[2] = system: C6; test: TUNEL labeling in C6; format: cell-based, rat; conditions: C6, 24 hours
Description: C6 were plated on glass coverslips. Cells were fixed and stained accordingly to manufacturer instructions. Propidium staining of the nuclei was replaced by Hoechst included in the mounting media. Several images were acquired with a high resolution camera on a microscope equipped with a 10× long working distance dry lens and analyzed with powerful commercial software. Results were expressed in the graph as green labeled pixel counts. The images from the top to the bottom are respectively from N.T., DMSO, Thap 20 nM, Thap 200 nM, STS100 nM. The blue images reflect nuclear staining while the images on the right represent BRDU staining.
Thereafter, cells were harvested and protein extracted. Procaspase 12 band at 65 kDa was identified. In some of the treatments, the active product at 45 kDa was also detected. […] Conversely, in C6, higher GRP78 levels and the cell environment reflect significant caspase activation. […] Caspase activation in ERSR conditions was also confirmed with a TUNEL based apoptosis detection system in C6. […] High resolution images of the experiments were acquired and image morphometric analysis was performed to determine quantitative parameters of the staining as previously described (Pascale et al., 2004, “Translocation of protein kinase C-betaII in astrocytes requires organized actin cytoskeleton and is not accompanied by synchronous RACK1 relocation.” Glia 46(2): 169-82). […]

[3] = system: glioma cells; test: Gliotoxicity, cell line not stated; format: cell-based; conditions: cell line not stated
Excerpt: Spiperone is a selective D2 dopamine receptor antagonist. This drug is used in the treatment of schizophrenia and other hallucinatory states. […] In an effort to develop Structure-Activity Relationships around the chosen compounds, a search of commercially available compounds that are either close structural analogs of these lead compounds (for example, acridine and quinoline analogs of quinacrine) or are related to these in terms of their pharmacological activity (dopamine receptor antagonists related to spiperone) was performed.

[4] = system: GRP78 promoter; test: GRP78-luc reporter assay in stably transfected U87-MG clone A5; format: cell-based, human; conditions: for GRP78 promoter driven luciferase (GRP78-luc) expression: result in words
Description: The promoter region contains the sequence of the GRP78 promoter from −139 to +7. In this part of the promoter there are three ER stress responsive elements and the TATA box to which is linked in frame the firefly luciferase sequence.
Compounds were plated in half area 96 well plates at the final concentration of 2 μM in 5 μl of media. Cells were added in 45 μl afterwards at the density of 5000/well. Plates were read after 16 h in an Envision high efficiency plate reader. Results are represented as a plate layout in which different shadings indicate the different rows and the number indicate the different lines. As a standard negative and positive controls were located in the outer columns.
A construct coding a large part of the human GRP78 promoter, attached to the reporter gene firefly luciferase was used (see FIG. 16 for a schematic) (Yoshida et al., 1998).
The promoter region contains the sequence of the GRP78 promoter from −139 to +7. In this part of the promoter there are three ER stress responsive elements and the TATA box to which is linked in frame the firefly luciferase sequence (FIG. 16)(Yoshida et al., 1998). The construct, which was cloned in an expression vector, was transfected into E. Coli, amplified, purified and checked it by enzymatic digestion. Thereafter, C6 and U87-MG were transiently transfected with the plasmid. After 24 hours the cells were challenged with THAP and TUN for 24 hours. Although, in transient transfection only a small part of the cell population expresses the transduced gene, a significant induction by THAP and TUN was detected over 24 hours. Armed with these encouraging data human glioma cells U87-MG were transfected with both the above described construct and a construct carrying resistance to blasticidin. The sensitivity of these cells to the antibiotic has previously been assessed. 24 hours after the transfection the antibiotic at its 75% inhibitory concentration was added. The cells were given time to proliferate. Two pools called P2 and P5 were selected and luciferase expression was assessed. […] Clones from these two pools were isolated. Luciferase expression in the clones was characterized and a clone called A5, in which baseline expression of the construct was reasonably low and induction with two positive controls was large and consistent, was selected. This clone, several back up clones, and the pools were amplified and frozen in sufficient amounts to guarantee continuity in case needed. Next, the effect of the incubation time on luciferase induction was assessed. Since this assay can be affected by false negative due to toxicity of hit compounds, the incubation times were kept as short as possible. Therefore, several incubation times were tested, including 8, 16 and 24 h. The goal was not to incubate longer than 24 hours because toxicity starts to develop at that time point. […] At this time point the induction is about 6-7 fold. Previously, using a different assay, a half a million compound library was screened very easily using 2.5 thousands cells per well in 1536 plates. […] With this cell number the dynamic range is large and the fold of induction of 6-7 is maintained.
It is common practice in the field of high throughput screening to assess the so called z number of the assay. This statistical parameter indicates the suitability of a given assay for high throughput screening. The z-value in a word describes the likelihood of a single point hit not to be false positive. The z value is a number lower than or equal to one. Values above 0.5 indicate a robust assay. Values below 0.5 but above 0 indicate an assay that probably needs to be run in duplicate. Negative values indicate assays whose predictability is very low. Z values are usually determined in a high density format plate usually a 96 well plate in manual conditions or a 384-1536 plate format in automated liquid handling environment. Z value determination has been performed using half area 96 well plates in manual mode. […]

[5] = system: phospholipase A2 (PLA2); conditions: cited from earlier work
[6] = system: PLA2; conditions: coinjection with PLA2; cited from earlier work

SMILES: Nc1ncnc2c1ncn2[C@@H]1O[C@H](COP(=O)(O)OP(=O)(O)OP(=O)(O)O)[C@@H](O)[C@H]1O [ATP]
- [Ca2+]i response of C6 to ATP compared with astrocytes [1]: increased elevation of [Ca^2+]i

SMILES: CN[C@@H]1C[C@H]2O[C@@](C)([C@@H]1OC)n1c3ccccc3c3c4c(c5c6ccccc6n2c5c31)C(=O)NC4 [staurosporin]
- TUNEL labeling [2]: clear increase of TUNEL labeling

SMILES: CCN(CC)CCCC(C)Nc1c2cc(OC)ccc2nc2cc(Cl)c(N)cc12 (centres unmarked) [OSSL-053454, 3-chloro-N^9-(5-(diethlyamino)pentan-2-yl)-7-methoxy acridine-2,9-diamine]
- gliotoxicity [3]: causes gliotoxicity similar to that caused by quinacrine
- gliotoxicity ([3]; listed as OSSL 53454): causes gliotoxicity
- GRP78 promoter driven luciferase (GRP78-luc) expression [4]: causes an increase of the GRP78-luc reporter gene similar to the increase caused by quinacrine
- GRP78 promoter driven luciferase (GRP78-luc) expression ([4]; listed as OSSL 53454): causes an increase of the GRP78-luc reporter gene as quinacrine

SMILES: O=C(CCCN1CCC2(CC1)C(=O)NCN2c1ccccc1)c1ccc(F)cc1 [spiperone]
- hit in Prestwick library screening (value above average of negative controls + 3 SD) ([4]; 2 μM, 5000 cells/well, read after 16 h): potentially attractive lead compounds

SMILES: Cl.Nc1c2ccccc2nc2ccccc12.O [9-aminoacridine, hydrate, hydrochloride]
- gliotoxicity [3]: causes gliotoxicity
- GRP78 promoter driven luciferase (GRP78-luc) expression ([4]; hydrate, hydrochloride): causes increased expression of the GRP78-luc reporter gene

SMILES: CCN(CC)CCCC(C)Nc1c2ccc(Cl)cc2nc2ccc(OC)cc12.Cl.Cl (centres unmarked) [quinacrine hydrochloride, 6-chloro-9-((4-(diethylamino)-1-methylbutyl)amino)-2-methoxyacridine dihydrochloride]
- PLA2 inhibition in platelets [5]: phospholipase A2 (PLA2) inhibitor
- reduction of the inflammogenic potency of PLA2 [6]: 64%
